Source: the NIST ThermoML archive (doi:10.1021/je800110r)
“And” between values parts separate entries of the source, which are not always exact repeats. Equal entries are not always repeated.

Conditions: 323.15 K, Liquid, Vibrating tube method

CCCCCCCCCC [decane]
Conditions | mass density
979 kPa | 707.8 kg/m3
1136 kPa | 707.9 kg/m3
1175 kPa | 707.9 kg/m3
2516 kPa | 709.2 kg/m3
2603 kPa | 709.2 kg/m3
2658 kPa | 709.3 kg/m3
2678 kPa | 709.4 kg/m3
2691 kPa | 709.3 kg/m3
2692 kPa | 709.2 kg/m3 and 709.4 kg/m3
2703 kPa | 709.4 kg/m3
2822 kPa | 709.4 kg/m3
2861 kPa | 709.4 kg/m3
2878 kPa | 709.5 kg/m3
2894 kPa | 709.6 kg/m3
2913 kPa | 709.5 kg/m3
2936 kPa | 709.5 kg/m3
2951 kPa | 709.6 kg/m3
2967 kPa | 709.5 kg/m3
2987 kPa | 709.6 kg/m3
3000 kPa | 709.7 kg/m3
3022 kPa | 709.6 kg/m3
3044 kPa | 709.5 kg/m3
3064 kPa | 709.6 kg/m3
3081 kPa | 709.7 kg/m3
4273 kPa | 710.8 kg/m3
4294 kPa | 710.8 kg/m3
4322 kPa | 710.8 kg/m3
4342 kPa | 710.9 kg/m3
4361 kPa | 710.8 kg/m3
4382 kPa | 710.8 kg/m3
4423 kPa | 710.9 kg/m3
4487 kPa | 711 kg/m3
4606 kPa | 711 kg/m3
4625 kPa | 711.1 kg/m3
4647 kPa | 711.1 kg/m3
4668 kPa | 711.2 kg/m3
4685 kPa | 711.2 kg/m3
4861 kPa | 711.3 kg/m3
4889 kPa | 711.4 kg/m3
4922 kPa | 711.3 kg/m3
5651 kPa | 712 kg/m3
5805 kPa | 712.2 kg/m3
5822 kPa | 712.1 kg/m3
5843 kPa | 712.2 kg/m3
5857 kPa | 712.3 kg/m3
5874 kPa | 712.2 kg/m3
5887 kPa | 712.2 kg/m3
6263 kPa | 712.6 kg/m3
6285 kPa | 712.6 kg/m3
6300 kPa | 712.6 kg/m3
6321 kPa | 712.5 kg/m3
6341 kPa | 712.7 kg/m3
6363 kPa | 712.7 kg/m3
6380 kPa | 712.6 kg/m3
6398 kPa | 712.7 kg/m3
6436 kPa | 712.7 kg/m3
6474 kPa | 712.7 kg/m3
6492 kPa | 712.8 kg/m3
6514 kPa | 712.7 kg/m3
6635 kPa | 712.8 kg/m3
6654 kPa | 712.9 kg/m3
6678 kPa | 712.9 kg/m3
6703 kPa | 713 kg/m3
6916 kPa | 713 kg/m3
6934 kPa | 713.1 kg/m3
6961 kPa | 713.2 kg/m3
6979 kPa | 713.1 kg/m3
7007 kPa | 713.1 kg/m3
7029 kPa | 713.3 kg/m3
7057 kPa | 713.3 kg/m3
7082 kPa | 713.3 kg/m3
7102 kPa | 713.2 kg/m3
7118 kPa | 713.3 kg/m3
7137 kPa | 713.4 kg/m3
7158 kPa | 713.4 kg/m3
7174 kPa | 713.4 kg/m3
7190 kPa | 713.4 kg/m3
7203 kPa | 713.3 kg/m3
7224 kPa | 713.3 kg/m3
7238 kPa | 713.4 kg/m3
7254 kPa | 713.5 kg/m3
7271 kPa | 713.5 kg/m3
7304 kPa | 713.4 kg/m3
7318 kPa | 713.5 kg/m3
7339 kPa | 713.4 kg/m3
7354 kPa | 713.4 kg/m3
7368 kPa | 713.5 kg/m3
8395 kPa | 714.3 kg/m3
8425 kPa | 714.4 kg/m3
8563 kPa | 714.5 kg/m3
8605 kPa | 714.6 kg/m3
9325 kPa | 715.2 kg/m3
9451 kPa | 715.3 kg/m3
10321 kPa | 715.9 kg/m3
10344 kPa | 716 kg/m3
10548 kPa | 716.3 kg/m3
11286 kPa | 716.8 kg/m3
11307 kPa | 716.8 kg/m3
11331 kPa | 716.8 kg/m3
11359 kPa | 716.8 kg/m3
11377 kPa | 716.9 kg/m3
11401 kPa | 717 kg/m3
11467 kPa | 717 kg/m3
12096 kPa | 717.5 kg/m3
12122 kPa | 717.5 kg/m3
12147 kPa | 717.6 kg/m3
12173 kPa | 717.6 kg/m3
12190 kPa | 717.7 kg/m3
12213 kPa | 717.5 kg/m3
12230 kPa | 717.6 kg/m3
12257 kPa | 717.6 kg/m3
12397 kPa | 717.7 kg/m3
12417 kPa | 717.7 kg/m3
12435 kPa | 717.8 kg/m3
12457 kPa | 717.8 kg/m3
12472 kPa | 717.8 kg/m3
12495 kPa | 717.8 kg/m3
12510 kPa | 717.9 kg/m3
12528 kPa | 717.8 kg/m3
12854 kPa | 718.2 kg/m3
12869 kPa | 718.2 kg/m3
12887 kPa | 718.1 kg/m3
12906 kPa | 718.2 kg/m3
12919 kPa | 718.1 kg/m3
12964 kPa | 718.2 kg/m3
12977 kPa | 718.3 kg/m3
12991 kPa | 718.2 kg/m3
13012 kPa | 718.2 kg/m3
13060 kPa | 718.2 kg/m3
13843 kPa | 718.9 kg/m3
13863 kPa | 718.9 kg/m3
13877 kPa | 718.9 kg/m3
13892 kPa | 719 kg/m3
13909 kPa | 719 kg/m3
13924 kPa | 719 kg/m3
13946 kPa | 719 kg/m3
13966 kPa | 719 kg/m3
13981 kPa | 719.1 kg/m3
14001 kPa | 719 kg/m3
14021 kPa | 719 kg/m3
14043 kPa | 719 kg/m3
14066 kPa | 719.2 kg/m3
14084 kPa | 719.2 kg/m3
14099 kPa | 719.1 kg/m3
14124 kPa | 719.2 kg/m3
14140 kPa | 719.3 kg/m3
14160 kPa | 719.2 kg/m3
14173 kPa | 719.2 kg/m3
14274 kPa | 719.2 kg/m3
14317 kPa | 719.3 kg/m3
14348 kPa | 719.5 kg/m3
14364 kPa | 719.3 kg/m3
14385 kPa | 719.4 kg/m3
14404 kPa | 719.4 kg/m3
14424 kPa | 719.4 kg/m3
14622 kPa | 719.6 kg/m3
14631 kPa | 719.5 kg/m3
14647 kPa | 719.5 kg/m3
14657 kPa | 719.7 kg/m3
14679 kPa | 719.6 kg/m3
14688 kPa | 719.6 kg/m3
14701 kPa | 719.6 kg/m3
14711 kPa | 719.7 kg/m3
14725 kPa | 719.7 kg/m3
14741 kPa | 719.6 kg/m3
14753 kPa | 719.7 kg/m3
15015 kPa | 719.9 kg/m3
15023 kPa | 719.9 kg/m3
15033 kPa | 719.8 kg/m3
15047 kPa | 720 kg/m3
15058 kPa | 719.9 kg/m3
15068 kPa | 719.9 kg/m3
15085 kPa | 720 kg/m3
15095 kPa | 719.9 kg/m3
15112 kPa | 720 kg/m3
15120 kPa | 719.9 kg/m3
15130 kPa | 719.9 kg/m3
15143 kPa | 720.1 kg/m3
15159 kPa | 720 kg/m3
15170 kPa | 720 kg/m3
15184 kPa | 720 kg/m3
15196 kPa | 720.1 kg/m3
15211 kPa | 720 kg/m3
15222 kPa | 720 kg/m3
15237 kPa | 720 kg/m3
15249 kPa | 720 kg/m3
15266 kPa | 720.1 kg/m3
15275 kPa | 720.1 kg/m3
15286 kPa | 720 kg/m3
15303 kPa | 720.2 kg/m3
15312 kPa | 720.1 kg/m3
15326 kPa | 720.1 kg/m3
15340 kPa | 720.2 kg/m3
15388 kPa | 720.2 kg/m3
15397 kPa | 720.2 kg/m3
15411 kPa | 720.2 kg/m3
15423 kPa | 720.2 kg/m3
15686 kPa | 720.4 kg/m3
15697 kPa | 720.5 kg/m3
15712 kPa | 720.4 kg/m3
15721 kPa | 720.5 kg/m3
16291 kPa | 721 kg/m3
16333 kPa | 721 kg/m3
16345 kPa | 721.1 kg/m3
16357 kPa | 720.9 kg/m3
16371 kPa | 721.1 kg/m3
16383 kPa | 720.9 kg/m3
16398 kPa | 721.1 kg/m3
16410 kPa | 720.9 kg/m3
16426 kPa | 721.1 kg/m3
16436 kPa | 721.1 kg/m3
16448 kPa | 721.1 kg/m3
16460 kPa | 721.2 kg/m3
16473 kPa | 721 kg/m3
16595 kPa | 721.1 kg/m3
16627 kPa | 721.2 kg/m3
16637 kPa | 721.2 kg/m3
16673 kPa | 721.2 kg/m3
16691 kPa | 721.2 kg/m3
16708 kPa | 721.1 kg/m3
16721 kPa | 721.3 kg/m3
16735 kPa | 721.2 kg/m3
16752 kPa | 721.2 kg/m3
16764 kPa | 721.2 kg/m3
16784 kPa | 721.3 kg/m3
16797 kPa | 721.3 kg/m3
16817 kPa | 721.4 kg/m3
16829 kPa | 721.3 kg/m3
16849 kPa | 721.4 kg/m3
16864 kPa | 721.5 kg/m3
16876 kPa | 721.4 kg/m3
16889 kPa | 721.3 kg/m3
16910 kPa | 721.3 kg/m3
16921 kPa | 721.4 kg/m3
16934 kPa | 721.4 kg/m3
16951 kPa | 721.4 kg/m3
16964 kPa | 721.4 kg/m3
16980 kPa | 721.5 kg/m3
16995 kPa | 721.4 kg/m3
17043 kPa | 721.5 kg/m3
17058 kPa | 721.4 kg/m3
17077 kPa | 721.6 kg/m3
17095 kPa | 721.5 kg/m3
17112 kPa | 721.4 kg/m3
17130 kPa | 721.6 kg/m3
17141 kPa | 721.5 kg/m3
17157 kPa | 721.6 kg/m3
17172 kPa | 721.4 kg/m3
17190 kPa | 721.6 kg/m3
17203 kPa | 721.6 kg/m3
17223 kPa | 721.6 kg/m3
17241 kPa | 721.6 kg/m3
17254 kPa | 721.7 kg/m3
17628 kPa | 722 kg/m3
18716 kPa | 722.8 kg/m3
18779 kPa | 722.8 kg/m3
18862 kPa | 722.9 kg/m3
18883 kPa | 722.8 kg/m3
19079 kPa | 723 kg/m3
19095 kPa | 723.2 kg/m3
19120 kPa | 723 kg/m3
19140 kPa | 723.1 kg/m3
19159 kPa | 723.1 kg/m3
19176 kPa | 723.2 kg/m3
19198 kPa | 723.2 kg/m3
19220 kPa | 723.2 kg/m3
19240 kPa | 723.2 kg/m3
19286 kPa | 723.3 kg/m3
19330 kPa | 723.3 kg/m3
19527 kPa | 723.5 kg/m3
19547 kPa | 723.4 kg/m3
19614 kPa | 723.5 kg/m3
19699 kPa | 723.6 kg/m3
